Measurements from US20200261485A1, “COMPOSITIONS COMPRISING 3'-O-GLUCURONIDE EPICATECHIN AND METHODS OF MAKING AND USING SUCH COMPOSITIONS” (NESTEC S.A., priority 2015, published 2020).
“Also recorded” adds a separate entry of the source. One block for each compound: values may come before it.

Key:
[1] = target: T1, h-TRPA1 (Homo sapiens, UniProt O75762); test: Calcium imaging of activation of CHO cells expressing h-TRPA1; format: cell-based; conditions: for Activity vs hTRPA1: CHO cells expressing h-TRPA1; for TRPA1 agonism (result in words): activation of CHO cells expressing h-TRPA1, FIGS. 4, 6, 7
T1 construct: expressed in transfected cells; host or cells: CHO cells
Description: Specifically, the activation of CHO cells expressing h-TRPA1 was tested according to the calcium imaging method described in Riera et al. (Riera, C. E., Vogel, H., Simon, S. A., Damak, S., & le Coutre, J. Sensory attributes of complex tasting divalent salts are mediated by TRPM5 and TRPV1 channels. J. Neurosci. 29, 2654-2662 (2009)).

[2] = tested on: endothelial nitric oxide synthase; test: Phosphorylation of endothelial nitric oxide synthase (western blot) in isolated aortic rat rings; format: cell-based; parameters: dose or concentration left out as unconfirmed; conditions: isolated Wistar rat aortic rings, 1 h incubation, FIG. 12
Description: Furthermore, comparative experiments were conducted on the expression of endothelial nitric oxide synthase in isolated aortic rat rings.
Thoracic aortas were obtained from male adults Wistar rats after euthanasia. Each aorta was carefully dissected and harvested cleaned of excess tissue and cut into three equal segments, approximately 7 mm long. All aortic rings were pre-incubated for 30 min in Krebs solution (20 mM Hepes buffer, pH 7.4, containing 119 mM NaCl, 4.7 mM KCl, 1 mM MgSO4, 0.4 mM NaH2PO4, 0.15 mM Na2HPO4, 5 mM NaHCO3, 1.25 mM CaCl2, 5.5 mM glucose) aerated with 95% O2 and 5% CO2 at 37° C. and then incubated with vehicle (DMSO 1%) or the different metabolites for 1 h. Metabolites were first dissolved in DMSO 1% and tested in a final concentration […]. At the end of the incubation period aortic rings were frozen at −70° C. until the homogenate preparation. Homogenates for western blot and western blot determinations were carried out by the regular procedures and phosphorylation level of endothelial nitric oxide synthase was evaluated.

[3] = concentration (max) tested 100 mM
[4] = concentration (max) tested 3 mM

T1 sequence (O75762 whole entry): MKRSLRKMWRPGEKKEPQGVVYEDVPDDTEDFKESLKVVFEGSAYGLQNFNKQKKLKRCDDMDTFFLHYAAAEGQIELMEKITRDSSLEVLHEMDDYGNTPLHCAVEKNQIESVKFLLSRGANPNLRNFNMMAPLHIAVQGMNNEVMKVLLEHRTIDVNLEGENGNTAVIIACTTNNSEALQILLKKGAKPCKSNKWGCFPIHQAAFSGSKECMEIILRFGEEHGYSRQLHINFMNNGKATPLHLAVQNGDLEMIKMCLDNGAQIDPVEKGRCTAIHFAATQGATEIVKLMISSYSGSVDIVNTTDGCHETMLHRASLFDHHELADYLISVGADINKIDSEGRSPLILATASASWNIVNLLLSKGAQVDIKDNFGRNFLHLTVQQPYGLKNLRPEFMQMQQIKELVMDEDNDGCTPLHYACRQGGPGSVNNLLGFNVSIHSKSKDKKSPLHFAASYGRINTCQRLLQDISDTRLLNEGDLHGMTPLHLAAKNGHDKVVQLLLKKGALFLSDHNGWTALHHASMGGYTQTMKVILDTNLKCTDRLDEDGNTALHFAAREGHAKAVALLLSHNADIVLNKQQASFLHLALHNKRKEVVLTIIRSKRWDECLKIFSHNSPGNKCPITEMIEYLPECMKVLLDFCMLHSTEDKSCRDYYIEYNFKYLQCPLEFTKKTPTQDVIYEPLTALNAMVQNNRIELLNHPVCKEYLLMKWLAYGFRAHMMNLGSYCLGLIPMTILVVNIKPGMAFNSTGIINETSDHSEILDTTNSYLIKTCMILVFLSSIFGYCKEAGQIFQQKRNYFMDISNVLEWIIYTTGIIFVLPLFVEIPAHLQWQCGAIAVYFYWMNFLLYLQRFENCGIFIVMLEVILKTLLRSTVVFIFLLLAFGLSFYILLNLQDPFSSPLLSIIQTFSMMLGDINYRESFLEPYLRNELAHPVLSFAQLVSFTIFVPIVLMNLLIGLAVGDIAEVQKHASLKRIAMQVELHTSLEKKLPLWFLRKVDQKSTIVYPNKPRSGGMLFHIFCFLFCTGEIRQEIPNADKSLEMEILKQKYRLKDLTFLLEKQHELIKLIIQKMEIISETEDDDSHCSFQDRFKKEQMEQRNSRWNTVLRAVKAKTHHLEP

Compound: COc1ccc(C2CC(=O)c3c(O)cc(O)cc3O2)cc1O[C@@H]1O[C@H](C(=O)O)[C@@H](O)[C@H](O)[C@H]1O (stereo partly drawn) [Hesperetin-3-O-Glucuronide]
Activity vs hTRPA1 [1, 4]: Inactive

Compound: Hesperetin-4-O-Glucuronide
Activity vs hTRPA1 [1, 4]: Inactive

Compound: O=C(O)[C@H]1O[C@@H](Oc2ccc([C@H]3Oc4cc(O)cc(O)c4C[C@H]3O)cc2O)[C@H](O)[C@@H](O)[C@@H]1O [4′-O-glucuronide epicatechin]
eNOS phosphorylation relative to control and chemically similar epicatechins [2]: increased eNOS phosphorylation

Compound: O=C(O)[C@H]1O[C@@H](Oc2cc([C@H]3Oc4cc(O)cc(O)c4C[C@H]3O)ccc2O)[C@H](O)[C@@H](O)[C@@H]1O [3′-O-glucuronide epicatechin]
Activity vs hTRPA1 ([1]; concentration (max) tested 133 mM): Active | TRPA1 agonism (result in words) [1]: is a TRPA1 agonist; also recorded: agonist of the cation channel of TRPA1 | EC50 ([1]; activation of hTRPA1 in CHO cells): ~80 mM | Concentration dependence of activation of CHO cells expressing h-TRPA1 ([1]; different concentrations, dose-response curve, FIGS. 10 and 11): activation occurs in a concentration-dependent manner | eNOS phosphorylation relative to control and chemically similar epicatechins [2]: increased eNOS phosphorylation

Compound: Hesperetin-7-3-O-Glucuronide
Activity vs hTRPA1 [1, 4]: Inactive

More lines, main results first:

Activity vs hTRPA1 [1, 3]: Inactive | TRPA1 agonism (result in words) ([1]; listed as 3′-methyl epicatechin): not TRPA1 agonists
Compound: COc1cc([C@H]2Oc3cc(O)cc(O)c3C[C@H]2O)ccc1O [3′-O-methyl epicatechin]
TRPA1 agonism (result in words) [1]: is not a TRPA1 agonist; also recorded: not TRPA1 agonists

Activity vs hTRPA1 [1, 3]: Inactive
Compound: O=S(=O)(O)Oc1ccc(C2Oc3cc(O)cc(O)c3CC2O)cc1O (stereo not drawn) [4′-sulfate-EC]

Blockage of the activation of hTRPA1 by 3′-O-glucuronide epicatechin ([1]; selective hTRPA1 antagonist added, FIG. 9): blocked the activation of hTRPA1
Compound: CC(C)c1ccc(NC(=O)Cn2cnc3c2c(=O)n(C)c(=O)n3C)cc1 [HC030031]

Activity vs hTRPA1 [1, 3]: Inactive
Compound: COc1cc(C2Oc3cc(OS(=O)(=O)O)cc(O)c3CC2O)ccc1O (stereo not drawn) [3′-methyl-7-sulfate-EC]

Activity vs hTRPA1 [1, 3]: Inactive
Compound: COc1ccc(C2Oc3cc(O)cc(O)c3CC2O)cc1O (stereo not drawn) [4′-methyl-EC]

Activity vs hTRPA1 [1, 3]: Inactive
Compound: O=S(=O)(O)Oc1cc([C@H]2Oc3cc(O)cc(O)c3C[C@H]2O)ccc1O [3′-O-sulfate epicatechin]
TRPA1 agonism (result in words) [1]: is not a TRPA1 agonist; also recorded: not TRPA1 agonists
